Converted amounts (≈) assume the structure as drawn. Where two headings read alike, the source gives them in different places.
Experiments:
MSSA = assay: MIC, broth microdilution, clinical isolates: MSSA; assay type: cell-based; settings: Staphylococcus aureus, 26 clinical isolates
Description: (§1) To assess the MICs for antibiotic susceptibility, Gram-positive bacteria isolated from human clinical specimens were obtained from several general hospitals in Seoul, Korea, during 2002–2018. Staphylococcus aureus Giorgio and Streptococcus pneumoniae ATCC49619 were used to test in vivo efficacies against […], in mice.
(§2) The MICs of the antimicrobial agents were determined by a twofold microdilution broth method, as described by the Clinical and Laboratory Standards Institute. Briefly, test organisms were grown on Mueller–Hinton agar (MHA, BD Difco, Sparks, MD, USA) plates, subcultured into cation-adjusted Mueller–Hinton broth (CAMHB, BD Difco, Sparks, MD, USA), and incubated for 18 h at 35 °C. For S. pneumoniae culture, 5% sheep blood (Hanil Comed, Seongnam, Korea) was added. The cultured bacteria were diluted using phosphate-buffered saline (PBS) to achieve a bacterial cell density of approximately 5 × 10^6 CFU/mL. All test organisms were loaded into 96-well plates containing serial dilutions of the antimicrobial agents to achieve a concentration of 5 × 10^4 CFU/well. The plates were incubated at 35 °C for 18–20 h and examined for bacterial growth.

MRSA = assay: MIC, broth microdilution, clinical isolates: MRSA; assay type: cell-based, Staphylococcus aureus; settings: Staphylococcus aureus, MRSA, 42 clinical isolates
Description: as §1, §2

[1] = test system: CNS (coagulase-negative staphylococci); assay: MIC, broth microdilution, clinical isolates: CNS; assay type: cell-based; settings: 31 clinical isolates
Description: as §1, §2

VRE = assay: MIC, broth microdilution, clinical isolates: VRE; assay type: cell-based, vancomycin-resistant Enterococcus
Description: as §1, §2

S. pneumoniae = assay: MIC, broth microdilution, clinical isolates: S. pneumoniae; assay type: cell-based, Streptococcus pneumoniae
Description: as §1, §2

[2] = test system: Vancomycin-sensitive E. faecalis; assay: MIC, broth microdilution, clinical isolates: vancomycin-sensitive E. faecalis; assay type: cell-based, Enterococcus faecalis; settings: Enterococcus faecalis, 32 clinical isolates
Description: as §1, §2

[3] = test system: Vancomycin-sensitive E. faecium; assay: MIC, broth microdilution, clinical isolates: vancomycin-sensitive E. faecium; assay type: cell-based, Enterococcus faecium; settings: Enterococcus faecium, 32 clinical isolates
Description: as §1, §2

S. aureus Giorgio [4] = assay: MIC against S. aureus Giorgio; assay type: cell-based, Staphylococcus aureus; settings: Staphylococcus aureus; read-out: MIC
Description: as §2

S. pneumoniae ATCC49619 [5] = assay: MIC against S. pneumoniae ATCC49619; assay type: cell-based; settings: Streptococcus pneumoniae, ATCC49619; read-out: MIC
Description: as §2

MRSA CCARM 3167 [6] = assay: MIC against MRSA CCARM 3167; assay type: cell-based; settings: Staphylococcus aureus; read-out: MIC
Description: as §2

VRE 3 [7] = assay: MIC against VRE 3; assay type: cell-based, vancomycin-resistant Enterococcus; settings: Enterococcus, read-out: MIC
Description: as §2

S. aureus Giorgio [8] = assay: Time-kill assay, S. aureus Giorgio; assay type: cell-based, Staphylococcus aureus; settings: 2× and 4× MIC, 24 h
Description: (§3) Time-kill analysis was performed by the NCCLS M26-A method. The test organisms (S. aureus Giorgio, S. pneumoniae ATCC49619, MRSA CCARM 3167, and VRE 3) incubated in CAMHB for 18 h at 35 °C were diluted to 10^5 CFU/mL with fresh CAMHB, and the diluted cultures were preincubated for 2 h. For S. pneumoniae culture, 5% sheep blood (Hanil Comed, Seongnam, Korea) was added. […] Culture aliquots (0.1 mL) were removed after 0, 2, 4, 6 and 24 h of incubation, and serial 10-fold dilutions were prepared in saline as needed. The numbers of viable cells were determined on drug-free MHA plates after 20 h of incubation. A compound was considered bactericidal if the original inoculum was reduced by 3 log CFU/mL (99.9%) at each concentration or was considered bacteriostatic if the inoculum was reduced by 0–3 log CFU/mL.

S. pneumoniae ATCC49619 [9] = assay: Time-kill assay, S. pneumoniae ATCC49619; assay type: cell-based, Streptococcus pneumoniae; settings: 2× and 4× MIC, 24 h
Description: as §3

MRSA CCARM 3167 [10] = assay: Time-kill assay, MRSA CCARM 3167; assay type: cell-based, Staphylococcus aureus; settings: 2× and 4× MIC, 24 h
Description: as §3

VRE 3 [11] = assay: Time-kill assay, VRE 3; assay type: cell-based, vancomycin-resistant Enterococcus; settings: 2× and 4× MIC, 24 h
Description: as §3

S. pneumoniae ATCC49619 [12] = assay: Neutropenic mouse respiratory tract infection model; assay type: in vivo, female ICR mice
Description: For the respiratory tract infection model, neutropenic mice were anesthetized and intranasally inoculated with a 50 μL suspension of S. pneumoniae ATCC49619 (4.4 × 10^8 CFU/mL). For the thigh infection model, the neutropenic mice were administered an intramuscular injection of a 100 μL suspension of S. aureus Giorgio (1 × 10^6 CFU/mL) into both thighs. For both models, four mice were included in each group. At 2 h after infection, two mice were sacrificed, and the infected thighs or lungs (n = 4) were excised to determine the initial bacterial levels. […] At 24 h after infection, the mice were sacrificed by cervical dislocation; their thighs or lungs were removed, homogenized, serially diluted with saline, and plated onto MHA to count the number of bacteria remaining. The number of viable bacterial cells (CFU) in the thighs or lungs of vehicle- and drug-treated mice was determined.

[13] = cited from earlier work

- MIC50 (MSSA; read-out: MIC50): 2 µg/mL (≈ 5.93 µM)
- MIC90 (MSSA; read-out: MIC90): 2 µg/mL (≈ 5.93 µM)
- MIC50 (MRSA; read-out: MIC50): 2 µg/mL (≈ 5.93 µM)
- MIC90 (MRSA; read-out: MIC90): 4 µg/mL (≈ 11.9 µM)
- MIC50 ([1]; read-out: MIC50): 2 µg/mL (≈ 5.93 µM)
- MIC90 ([1]; read-out: MIC90): 4 µg/mL (≈ 11.9 µM)
- MIC90 (VRE; 46 clinical isolates): 4 µg/mL (≈ 11.9 µM)
- MIC50 (VRE; Enterococcus, VRE, 46 clinical isolates, read-out: MIC50): 2 µg/mL (≈ 5.93 µM)
- MIC90 (VRE; Enterococcus, 46 VRE isolates, read-out: MIC90): 4 µg/mL (≈ 11.9 µM)
- MIC90 (S. pneumoniae; 27 clinical isolates): 4 µg/mL (≈ 11.9 µM)
- MIC90 (S. pneumoniae; Streptococcus pneumoniae, 27 S. pneumoniae isolates, read-out: MIC90): 4 µg/mL (≈ 11.9 µM)
- MIC50 (S. pneumoniae; Streptococcus pneumoniae, 27 clinical isolates, read-out: MIC50): 2 µg/mL (≈ 5.93 µM)
- MIC50 ([2]; read-out: MIC50): 2 µg/mL (≈ 5.93 µM)
- MIC90 ([2]; read-out: MIC90): 4 µg/mL (≈ 11.9 µM)
- MIC50 ([3]; read-out: MIC50): 2 µg/mL (≈ 5.93 µM)
- MIC90 ([3]; read-out: MIC90): 4 µg/mL (≈ 11.9 µM)
- MIC (S. aureus Giorgio [4]): 2 µg/mL (≈ 5.93 µM)
- MIC (S. pneumoniae ATCC49619 [5]): 2 µg/mL (≈ 5.93 µM)
- MIC (MRSA CCARM 3167 [6]): 1 µg/mL (≈ 2.96 µM)
- MIC (VRE 3 [7]): 2 µg/mL (≈ 5.93 µM)
Compound: CC(=O)NC[C@H]1CN(c2ccc(N3CCOCC3)c(F)c2)C(=O)O1 [Linezolid]
- time-kill activity (S. aureus Giorgio [8]): bacteriostatic (considered bacteriostatic if the inoculum was reduced by 0–3 log CFU/mL)
- time-kill activity (S. pneumoniae ATCC49619 [9]): bacteriostatic (considered bacteriostatic if the inoculum was reduced by 0–3 log CFU/mL)
- time-kill activity (MRSA CCARM 3167 [10]): bacteriostatic (considered bacteriostatic if the inoculum was reduced by 0–3 log CFU/mL)
- time-kill activity (VRE 3 [11]): bacteriostatic (considered bacteriostatic if the inoculum was reduced by 0–3 log CFU/mL)
- in vivo effect (bacteriostatic or bactericidal) (S. pneumoniae ATCC49619 [12]; 4 mg/kg bid s.c.): bacteriostatic
- in vivo effect (bacteriostatic or bactericidal) (S. pneumoniae ATCC49619 [12]; 20 mg/kg bid s.c.): bactericidal
- reduction of the starting bacterial burden compared to the 2-h control group (S. pneumoniae ATCC49619 [12]; second trial, 20 mg/kg bid): 0.75 log10 CFU/lung
- bound to plasma proteins [13]: 18%

Reference: article PMC9311539, “Antibacterial Activity against Clinical Isolates and In Vivo Efficacy of Coralmycins” (Antibiotics, 2022)
